Consider ten compounds from ChEMBL document CHEMBL1201862, “PubChem BioAssay data set” (2004).

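The compound was tested at five concentrations on cells cultured in 96-well plates, with a 48-hour exposure period. The concentration for 50% growth inhibition is given as GI50.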 Calls of active or inactive are those of the source. Rule as the data show it: active = GI50 up to about 1.1 µM and inactive = higher. Where only a bound is given, the exact number is not on record here.

Test systems include 786-0; A498; COLO 205; EKVX; HCC 2998; HOP-62; HOP-92; Hs-578T; IGROV-1; K562; LOX IMVI; Malme-3M; PC-3; SK-MEL-28; SK-MEL-2; SK-OV-3; SN12C; SNB-19; SW-620; T47D.
Holding throughout (assay): inhibition of tumour cell growth, NCI panel, 48 h

For the compound `COc1ccc2nc3cccc([N+](=O)[O-])c3c(NCCO)c2c1`, the GI50 is 0.0112 µM (active) in the test on 786-0; 0.0507 µM (active) in the test with A498; 0.00527 µM (active) with COLO 205; 0.0238 µM (active) in the test on EKVX; 0.0146 µM (active) in the test with HCC 2998; 0.0208 µM (active) in the test on HOP-62. In addition, the GI50 in the test on HOP-92 was 0.0195 µM (active); with Hs-578T, 0.0169 µM (active); in the test with IGROV-1, 0.162 µM (active); in the test with K562, 0.00199 µM (active); in the test with LOX IMVI it was 0.00149 µM (active); with Malme-3M it was 0.016 µM (active). Also, the GI50 is 0.0232 µM (active) with PC-3; 0.0277 µM (active) in the test on SK-MEL-28; 0.0175 µM (active) in the test on SK-MEL-2; 0.185 µM (active) in the test with SK-OV-3; 0.019 µM (active) in the test with SN12C; 0.0486 µM (active) in the test on SNB-19. The GI50 is 0.00164 µM (active) in the test with SW-620 and 0.141 µM (active) in the test with T47D.

In the case of `CC(C)=CC[S+]([O-])c1ccccc1NC1=CC(=O)CC(C)(C)C1` (configuration not stated), the GI50 is > 100 µM (inactive) with 786-0; > 100 µM (inactive) in the test with A498; > 100 µM (inactive) in the test with COLO 205; > 100 µM (inactive) in the test with EKVX; > 100 µM (inactive) in the test on HCC 2998; 0.124 µM (active) in the test on HOP-62. The GI50 in the test with HOP-92, in the test with Hs-578T, with IGROV-1, in the test with K562, in the test with LOX IMVI and in the test with Malme-3M was > 100 µM (inactive) each time. The GI50 with PC-3, in the test on SK-MEL-28, in the test on SK-MEL-2, in the test with SK-OV-3, with SN12C and in the test with SNB-19 was > 100 µM (inactive) in each case. The GI50 with SW-620 and with T47D was > 100 µM (inactive) throughout.

`C[n+]1ccn2c3nc4ccccc4nc3c([O-])c(C#N)c21`: the GI50 is > 48.5 µM (inactive) in the test with 786-0; > 100 µM (inactive) in the test with A498; > 100 µM (inactive) in the test on COLO 205; > 100 µM (inactive) with EKVX; > 10 µM (inactive) in the test with HCC 2998; > 10 µM (inactive) in the test with HOP-62. For the same compound, the GI50 in the test on HOP-92 was > 100 µM (inactive); in the test on Hs-578T, > 100 µM (inactive); with IGROV-1, > 31.4 µM (inactive); with K562, > 100 µM (inactive); in the test with LOX IMVI, > 100 µM (inactive); in the test on Malme-3M it was > 100 µM (inactive). For the same compound, the GI50 with PC-3 is > 100 µM (inactive); in the test with SK-MEL-28 it was > 100 µM (inactive); with SK-MEL-2, > 4.65 µM (inactive); in the test on SK-OV-3, > 100 µM (inactive); with SN12C, > 100 µM (inactive); in the test with SNB-19, > 100 µM (inactive). Also, the GI50 in the test with SW-620 and in the test with T47D was > 100 µM (inactive) throughout.

On to `CC(=O)N(C(C)=O)n1c(Cc2ccc(C)cc2)nn(C(C)=O)c1=O`, for which the GI50 with 786-0, in the test on A498, with COLO 205, in the test on EKVX, in the test on HCC 2998 and in the test on HOP-62 was > 100 µM (inactive) each time. The GI50 in the test with HOP-92, with Hs-578T, in the test on IGROV-1, in the test on K562, in the test on LOX IMVI and in the test on Malme-3M was > 100 µM (inactive) each time. In addition, the GI50 with PC-3, in the test on SK-MEL-28, with SK-MEL-2, in the test on SK-OV-3, in the test with SN12C and in the test on SNB-19 was > 100 µM (inactive) each time. Further, the GI50 in the test with SW-620 and in the test with T47D was > 100 µM (inactive) throughout.

Consider `CC1OC(O)CC(N(C)C)C1O.CC1OC(O)CCC1O.CCC1CC(O)c2c(O)c3c(c(O)c2C1O)C(=O)c1cccc(O)c1C3=O` (configuration not stated), for which the GI50 with 786-0 was 0.0124 µM (active); in the test on A498 it was 0.0114 µM (active); in the test on COLO 205 it was 0.0209 µM (active); in the test on EKVX it was 0.0281 µM (active); in the test with HCC 2998 it was 0.0197 µM (active); in the test with HOP-62, 0.034 µM (active). Besides, the GI50 is 0.01 µM (active) in the test on HOP-92; 0.0507 µM (active) in the test with Hs-578T; 0.0284 µM (active) in the test with IGROV-1; 0.00597 µM (active) in the test on K562; 0.0135 µM (active) with LOX IMVI; 0.021 µM (active) with Malme-3M. Further, the GI50 in the test on PC-3 is 0.0177 µM (active); in the test with SK-MEL-28, 0.0266 µM (active); in the test with SK-MEL-2, 0.0212 µM (active); in the test with SK-OV-3, 0.033 µM (active); with SN12C, 0.0353 µM (active); in the test with SNB-19 it was 0.0301 µM (active). Besides, the GI50 was 0.014 µM (active) in the test with SW-620 and 0.0242 µM (active) in the test with T47D.

Turning to `CCOC(=O)c1ccc(/N=C2\SC(=S)N(c3ccc(F)cc3)\C2=N/c2ccc(C(=O)OCC)cc2)cc1`, the GI50 in the test on 786-0 was 17.1 µM (inactive); with A498, > 100 µM (inactive); in the test with COLO 205 it was 19.3 µM (inactive); with EKVX it was 22.1 µM (inactive); with HCC 2998, 40.7 µM (inactive); with HOP-62 it was > 58.7 µM (inactive). The GI50 with HOP-92 was 7.76 µM (inactive); with Hs-578T, 13.9 µM (inactive); with IGROV-1, 14.4 µM (inactive); with K562, 12.3 µM (inactive); in the test on LOX IMVI it was 5.73 µM (inactive); in the test with Malme-3M, 15.5 µM (inactive). For the same compound, the GI50 was 13.5 µM (inactive) in the test on PC-3; 13.2 µM (inactive) in the test with SK-MEL-28; 12.9 µM (inactive) with SK-MEL-2; 86.9 µM (inactive) in the test with SK-OV-3; 15.7 µM (inactive) in the test on SN12C; 65.2 µM (inactive) with SNB-19. The GI50 in the test with SW-620 was 12.5 µM (inactive); in the test with T47D, 5.19 µM (inactive).

With `Cc1ccc(C)c(C2NC(=O)c3ccccc3N2)c1` (configuration not stated), the GI50 in the test with 786-0 was 1.76 µM (inactive); in the test on A498, 3.62 µM (inactive); in the test with COLO 205 it was 0.703 µM (active); with EKVX, 5.07 µM (inactive); with HCC 2998, 2.8 µM (inactive); in the test on HOP-62, 1.93 µM (inactive). The GI50 in the test with HOP-92 was 37.2 µM (inactive); in the test on Hs-578T, 1.09 µM (active); in the test on IGROV-1, 1.13 µM (inactive); in the test on K562, 0.274 µM (active); in the test with LOX IMVI, 2.05 µM (inactive); in the test with Malme-3M it was 0.668 µM (active). Besides, the GI50 is 1.06 µM (active) with PC-3; 12.5 µM (inactive) with SK-MEL-28; 1.29 µM (inactive) in the test on SK-MEL-2; 2.02 µM (inactive) with SK-OV-3; 4.69 µM (inactive) with SN12C; 2.1 µM (inactive) with SNB-19. Also, the figures for the GI50 in the test with SW-620 and in the test with T47D were 0.472 µM (active) and 2.72 µM (inactive), respectively.

`COc1cc(Nc2cc(Cl)cc(Cl)c2)nc(N)n1`: the GI50 was 17.4 µM (inactive) in the test with 786-0; 21.9 µM (inactive) in the test with A498; 23.1 µM (inactive) with COLO 205; 6.11 µM (inactive) with EKVX; 16.6 µM (inactive) in the test on HCC 2998; 17.5 µM (inactive) in the test on HOP-62. Besides, the GI50 was 16.4 µM (inactive) with HOP-92; 26.2 µM (inactive) with Hs-578T; 18.6 µM (inactive) with IGROV-1; 30.7 µM (inactive) with K562; 16.3 µM (inactive) in the test on LOX IMVI; 21.3 µM (inactive) with Malme-3M. The GI50 in the test on PC-3 was 20.8 µM (inactive); in the test with SK-MEL-2 it was 14.3 µM (inactive); in the test with SK-OV-3, 27.5 µM (inactive); with SN12C, 20.9 µM (inactive); with SNB-19, 22.9 µM (inactive); with SW-620, 19.7 µM (inactive). For the same compound, the GI50 in the test on T47D was 24.6 µM (inactive).

Take `NC(=O)c1csc(C2OC(CO)C(O)C2O)n1` (configuration not stated): the GI50 is 21.8 µM (inactive) in the test on 786-0; 785 µM (inactive) in the test with A498; 7.45 µM (inactive) in the test with COLO 205; 543 µM (inactive) in the test with EKVX; 467 µM (inactive) in the test with HCC 2998; 90.8 µM (inactive) in the test on HOP-62. For the same compound, the GI50 in the test on HOP-92 was 115 µM (inactive); in the test with Hs-578T, 44.7 µM (inactive); in the test on IGROV-1, 42.4 µM (inactive); in the test with K562 it was 4.26 µM (inactive); in the test on LOX IMVI it was 267 µM (inactive); in the test with Malme-3M it was 1640 µM (inactive). Further, the GI50 in the test with PC-3 was 4.9 µM (inactive); in the test on SK-MEL-2, 2340 µM (inactive); in the test with SK-OV-3, 61.8 µM (inactive); in the test with SN12C, 379 µM (inactive); in the test with SNB-19, 38.3 µM (inactive); in the test on SW-620, 13.8 µM (inactive). Also, the GI50 in the test on T47D is 2790 µM (inactive).

Regarding `COc1ccc(C(SCCO)(c2ccc(OC)cc2)c2ccc(OC)cc2)cc1`, the GI50 is 14.2 µM (inactive) with 786-0; 17.8 µM (inactive) in the test on A498; 11.2 µM (inactive) with COLO 205; 10.7 µM (inactive) with EKVX; 14.4 µM (inactive) in the test on HCC 2998; 16.4 µM (inactive) with HOP-62. Besides, the GI50 in the test on HOP-92 was 10.1 µM (inactive); in the test with Hs-578T, 17.2 µM (inactive); in the test on K562, 3.19 µM (inactive); with LOX IMVI, 14 µM (inactive); in the test on Malme-3M, 17.6 µM (inactive); with PC-3 it was 13.8 µM (inactive). For the same compound, the GI50 was 17.9 µM (inactive) in the test with SK-MEL-28; 14.1 µM (inactive) with SK-MEL-2; 29.1 µM (inactive) in the test on SK-OV-3; 17.5 µM (inactive) with SN12C; 26.9 µM (inactive) in the test on SNB-19; 15 µM (inactive) in the test with SW-620. The GI50 in the test with T47D is 6.03 µM (inactive).
